Source: US9051240B2, “Substituted 2-[2-(phenyl) ethylamino] alkaneamide derivatives and their use as sodium and/or calcium channel modulators” (Newron Pharmaceuticals S.P.A., priority 2007, dated 2015)
Like-named read-outs stand apart in the source and are kept apart here.

What was measured:
mice [1] = assay: Formalin test; type: in vivo; conditions: Mus musculus, po
Procedure: According to a modified protocol from Rosland et al. (Rosland J. H., Tjolsen A., Maehle B., Hole K. Pain (1990) 42: 235-242), mice were injected subcutaneously (s.c.) with 20 μl of 2.7% solution of formalin into the plantar surface of left hindpaw and placed immediately into clear PVC observation chambers (23×12×13 cm). Pain behaviour was quantified by counting the cumulative licking time (s) of the injected paw. Measurements were taken during the early phase (0-5 min) and late phase (20-40 min) after formalin injection (Tjolsen A., Berge O. G., Hunskaar S., Rosland J. H., Hole K. Pain (1992) 51: 5-17).
The test compound was administered p.o. or s.c. 5-45 minutes before formalin injection in a volume of 10 ml/kg body weight to groups of 10 mice per dose. Control group was treated with vehicle.

mice [2] = assay: Acetic acid-induced visceral pain model in mice; type: in vivo; conditions: 20 mg/Kg p.o.
Source text: The acetic acid-induced visceral pain model is widely used in experimental research to produce abdominal contractions (Korster R et al., Fed. Pro. (1959) 18: 412; Friese N et al., Life Sci. (1997) 60: 625-634) The model consists of intraperitoneal (i.p.) injection of an irritant that induces a syndrome called ‘writhing’, which consists of contractions of the abdomen, twisting and turning of the trunk, arching of the back and extension of the hind limbs.
Animals and procedure: Male CD1 mice weighing 25-33 g were used. Each treated group was allowed 30 min to habituate to laboratory surroundings in individual polypropylene transparent boxes. The visceral pain was scored by counting the number of writhes for 10 min after i.p. injection of 0.6% acetic acid (10 ml/kg of body weight). The number of writhes after acetic acid administration were evaluated. Both complete body stretching (complete writhe) or partial stretching with a clear contracting of the abdomen (partial writhe) were counted.
Separate groups of 10 mice each were administered orally with vehicle (10 ml/kg), or different doses of the tested compound dissolved in vehicle (10 ml/kg), 5 min before acetic acid injection. Data are expressed as the mean number of writhes during the 10 min observation period.

SNL rats = assay: Spinal nerve ligation model of neuropathic pain (thermal hyperalgesia); type: in vivo; conditions: Rattus norvegicus, po, orally administered
[3] = tested on: Na+ currents in ND7/23 cells (TTX-s); assay: Patch clamp evaluation of Na+ currents blockade in ND7/23 cell line; type: cell-based, rat
Procedure: ND7/23 (ECACC No 92090903 from SIGMA), is a hybrid cell line derived from a neonatal rat DRG fused with the mouse neuroblastoma N18Tg2 (Wood et al., Proc. Biol. Sci., 1990 September, 241(1302), 187-194).
The molecular identity of the channels responsible for the TTX-s conductance is unknown but it is presumed that TTX-s conductance arises from the activity of a mixed population of sodium channels.
Cells are routinously maintained in DMEM with 10% of FBS, 4 mM glutamine, 1 mM sodium piruvate. The day before the patch clamp experiment cells are detached and seeded at 100,000 cells/polylysine-coated 35 mm Petri dish.
Experiments on ND7/23 cells were carried out using standard whole cell patch clamp methods (Hamill et al., Pfugers Arch., 1981 August, 391(12), 85-100), as described in previous section.
To test the effect of compounds on sodium currents in ND7/23 cells, holding membrane potential was set at −90 mV, then a two step protocol was used to determine the voltage dependence of the block. Sodium currents were activated by a 30 ms step pulse to 0 mV (test pulse) from a 2000 ms preconditioning potential of −110 mV (resting condition) and a potential of ˜−70 mV (half maximal steady-state condition).
Tonic block of resting and depolarized currents at a given drug concentration was calculated as the difference between the peak Na^+ current in the control external bath solution and peak currents with the test substance divided by control peak.
Drug concentration-inhibition curves were obtained by plotting tonic blocks in the resting and depolarized condition, versus drug concentrations. Dose-response curves were fitted to the tonic block data, according to the logistic equation: y=A2+(A1−A2)/[1+(x/IC50)p]. A1 and A2 are fixed values of 0 and 1 corresponding to 0 and 100% current inhibition, x is the drug concentration, IC50 is the drug concentration resulting in 50% current inhibition and p is the corresponding slope factor.
The apparent affinity of drug for the inactivated state (Ki) was calculated according to the equation 1/Kdep=h/Kr+(1−h)/Ki where Kr is the affinity of drug for the resting/closed state; Kdep is the IC50 in the depolarized condition, h and (1−h) are the fractions of channels present at the rest. and dep. potentials, respectively.
Control bath solution contained (mM): NaCl 80, Choline HCl 40, CaCl2 1.3, MgCl2 2, KCl 2, CdCl2 0.4, NiCl2 0.3, TEACl 20, Hepes 10, Glucose 10.
Internal pipette solution consisted of (mM): CsF 65, CsCl 65, NaCl 10, CaCl2 1.3, MgCl2 2, Hepes 10, EGTA 10, MgATP 1.
Compounds were dissolved as stock solutions (20 mM) in DMSO. They were diluted to the final concentrations in the external solution.

Row | SMILES | ED50 (mice [1]) [mg/kg] | number of writhes, significance vs. vehicle (mice [2]) | ED50 (SNL rats) [mg/kg] | Ki ([3]; calculated from Kr and Kdep, read-out: Ki (apparent affinity for the inactivated state)) [µM] | IC50 ([3]; read-out: IC50 depolarized, preconditioning potential ~-70 mV) [µM] | IC50 ([3]; read-out: IC50 resting (Kr), preconditioning potential -110 mV) [µM]
1 | CCCCOc1cccc(CCNCC(=O)N(C)C)c1.Cl [2-[2-(3-Butoxyphenyl)-ethylamino]-N,N-dimethylacetamide hydrochloride] | 14.9 | p<0.01 vs. vehicle | 10.6 |  |  | 
2 | C[C@H](NCc1ccc(OCc2ccccc2F)cc1)C(N)=O [ralfinamide, (S)-(+)-2-[4-(2-fluorobenzyloxy)-benzylamino]-propanamide, reference compound] | 29.3 |  |  | 8.3 | 15 | 149
